Source: US20090202572A1, “COMPOSITIONS AND METHODS FOR MODULATING BONE MASS” (priority 2004, published 2009)
“Also recorded” adds a separate entry of the source. Read-outs that look alike come from different tables or passages of the source.

Legend:
WT osteoblasts = experiment: cAMP production in osteoblasts; format: cell-based, mouse
Description: β2AR is the only post-synaptic β-AR whose expression can be detected in osteoblasts. […] Thus, we used Adrb2−/− mice to study how sympathetic signaling affects bone remodeling in adult animals.

mature osteoclasts = experiment: cAMP production in mature osteoclasts (EIA); format: cell-based, mouse; settings: ISO 10 μM, calcitonin 100 pg/ml
Experimental: (§1) (a) In vitro osteoclastogenesis is not affected by Adrb2 deficiency. BBMs were differentiated with the indicated amounts of RANK-L and MCS-F and the number of TRAP+ osteoclasts was counted after 5 days. (b) In vitro osteoclast differentiation is not affected by Isoproterenol (ISO) treatment. BBMs were differentiated in presence of MCS-F and RANK-L with or without 10 uM ISO and the number of TRAP+ osteoclasts was counted after 5 days. […] BBMs were differentiated in presence of MCS-F and RANK-L and were treated by ISO (10 μM), dobutamine (Dobu, 10 μM) or calcitonin (100 pg/ml). Intracellular cAMP production was measured by EIA. (d) ISO stimulated osteoclast differentiation via stimulation of b2AR in osteoblasts. Osteoblasts and BMMs were co-cultured with 1,25(OH)2-vitamin D (10^-8 M) with or without ISO (10 uM) and the number of TRAP+ osteoclasts was counted after 4 days. (e) ISO induced Rank-l expression in osteoblasts, via b2AR. (f) ISO induced IL6 expression in osteoblasts, via b2AR. WT and Adrb2 primary osteoblasts were treated for the indicated time with ISO (10 μM) and gene expression was quantified by real-time RT-PCR. (g) Schematic diagram of the structure of Rank-1 and IL6 promoters. Boxes represent CREB-like consensus binding sites.
To test whether sympathetic signaling could affect osteoclast function, we treated TRAP-positive multinucleated osteoclasts with isoproterenol.

osteoblasts and BMMs = experiment: Co-culture of osteoblasts and BMMs with 1,25-(OH)2 vitamin D3 (TRAP+ osteoclast count); format: cell-based, mouse; settings: for number of TRAP-positive multinucleated osteoclasts in co-culture: WT osteoblasts and WT BMMs, ISO 10 uM, 4 days
Experimental: as §1, with “BBMs” for “(a) In vitro osteoclastogenesis is not affected by Adrb2 deficiency. BBMs”, “(b) In vitro osteoclast differentiation is not affected by Isoproterenol (ISO) treatment.” left out, “(d) ISO stimulated osteoclast differentiation via stimulation of b2AR in osteoblasts.” left out, “(e) ISO induced Rank-l expression in osteoblasts, via b2AR. (f) ISO induced IL6 expression in osteoblasts, via b2AR.” left out
To that end we performed co-culture of BMMs and osteoblasts prepared from mouse calvariae. In this assay treatment of osteoblasts with 1,25-(OH)2 vitamin D3 leads to the differentiation of BMMs into TRAP-positive multinucleated osteoclasts.

primary osteoblasts = experiment: Gene expression in primary osteoblasts by real-time RT-PCR; format: cell-based, mouse
Experimental: as §1, with “BBMs” for “(a) In vitro osteoclastogenesis is not affected by Adrb2 deficiency. BBMs”, “(b) In vitro osteoclast differentiation is not affected by Isoproterenol (ISO) treatment.” left out, “(d) ISO stimulated osteoclast differentiation via stimulation of b2AR in osteoblasts.” left out, “(e) ISO induced Rank-l expression in osteoblasts, via b2AR. (f) ISO induced IL6 expression in osteoblasts, via b2AR.” left out
To test this hypothesis we analyzed the expression in osteoblasts of genes encoding known regulators of osteoclast differentiation following treatment with isoproterenol.

WT mature osteoclasts = experiment: Osteoclast function: resorption pits on dentine slices; format: cell-based, mouse
Description: WT or Adrb2 BBMs were differentiated for 2 days with MCS-F and RANK-L, trypsinized and platted on dentine slices for 2 days. Resorption pits were stained with hematoxylin and resorption pit area was quantified (data not shown). To test whether sympathetic signaling could affect osteoclast function, we treated TRAP-positive multinucleated osteoclasts with isoproterenol.

WT mice [1] = experiment: Gene expression in bones of WT mice treated for 3 weeks; format: in vivo, mouse; settings: 3 weeks treatment
Description: To determine the biological relevance of these findings we performed two experiments. First, we treated WT mice with isoproterenol for 3 weeks and analyzed bone resorption parameters and bone expression of Rank-l and IL6 at the end of this treatment period. […] Second, to determine the role that this physiological regulation may have in pathological conditions such as bone loss developing after menopause, we ovariectomized WT and Adrb2−l− mice at one month of age and analyzed them 3 months later. […] The increase in bone formation that persisted together with the absence of any increase in bone resorption explained why Adrb2−/− mice maintained a higher bone mass than WT mice.

[2] = test system: bone marrow macrophages (BMMs); experiment: In vitro osteoclast differentiation of BMMs with RANK-L and M-CSF (TRAP+ count); format: cell-based, mouse; settings: 10 uM ISO, counted after 5 days
Experimental: as §1, with “BBMs” for “(a) In vitro osteoclastogenesis is not affected by Adrb2 deficiency. BBMs”, “(b) In vitro osteoclast differentiation is not affected by Isoproterenol (ISO) treatment.” left out, “(d) ISO stimulated osteoclast differentiation via stimulation of b2AR in osteoblasts.” left out, “(e) ISO induced Rank-l expression in osteoblasts, via b2AR. (f) ISO induced IL6 expression in osteoblasts, via b2AR.” left out

WT mice [3] = settings: stated as known property; cited from earlier work
WT mice [4] = experiment: Bone remodeling parameters in treated WT mice; format: in vivo, mouse
Description: (a) von Kossa staining of vertebral sections. Six month old Adrb2−/− and Adrb2+/− mice display an increase in bone volume over tissue volume (BV/TV) compared to wt littermates. (b) Bone formation parameters: bone formation rate (BFR), osteoblast surface over bone surface (ObS/BS) and osteoblast number over bone perimeter (ObNb/BPm) are increased in Adrb2−/− and Adrb2+/− mice. (c) Bone resorption parameters: osteoclast surface over bone surface (OcS/BS), osteoclast number over bone perimeter (OcNb/BPm) and urinary elimination of deoxypiridinoline (dpd) are decreased in Adrb2−/− and Adrb2+/− mice.
First, we analyzed mice lacking only one copy of Adrb2 and compared them to WT mice treated with propranolol, a β-adrenergic receptor antagonist whose administration enhances bone formation in mice. Expression of Adrb2 was first assayed in WT, Adrb2−/− and Adrb2+/− osteoblasts. […] This was due to both an increase in bone formation and a decrease in bone resorption (FIGS. 1b and 1c). To our knowledge, this high bone mass is the only phenotypic consequence reported so far in the case of haploinsufficiency at the Adrb2 locus.

CC(CCc1ccc(O)cc1)NCCc1ccc(O)c(O)c1 (stereo not drawn) [dobutamol]
cAMP production in osteoblasts (WT osteoblasts): did not and not

CC(C)NCC(O)c1ccc(O)c(O)c1 (stereo not drawn) [isoproterenol]
intracellular cAMP production in osteoclasts (mature osteoclasts): did not induce any significant
intracellular cAMP production in osteoclasts (mature osteoclasts; listed as ISO): does not induce
osteoclast differentiation in co-culture (osteoblasts and BMMs; Adrb2−/− osteoblasts with WT BMMs): could not enhance
number of TRAP-positive multinucleated osteoclasts in co-culture (osteoblasts and BMMs): significantly increased
number of TRAP-positive multinucleated osteoclasts in co-culture (osteoblasts and BMMs; listed as ISO): stimulated
osteoclast differentiation in co-culture (osteoblasts and BMMs; WT osteoblasts with Adrb2−/− BMMs): increased
induction of Rank-l expression (primary osteoblasts; Adrb2−/− osteoblasts): not detected
IL6 expression in osteoblasts (primary osteoblasts; ISO 10 μM): increased
IL6 expression in osteoblasts (primary osteoblasts; ISO 10 μM, listed as ISO): induced
Rank-l expression in osteoblasts (in words) (primary osteoblasts; WT osteoblasts, ISO 10 μM): induced
increase of Rank-l expression (primary osteoblasts; WT osteoblasts, ISO 10 μM): ~20 fold
expression of IL2 (primary osteoblasts; osteoblasts, data not shown): did not affect
expression of ILI α (primary osteoblasts; osteoblasts, data not shown): did not affect
expression of M-CSF (primary osteoblasts; osteoblasts, data not shown): did not affect
expression of osteoprotegerin (Opg) (primary osteoblasts; osteoblasts, data not shown): did not affect
osteoclast function (pit formation / resorption pit area on dentine slices) (WT mature osteoclasts): did not affect
osteoclast function (pit formation / resorption pit area on dentine slices) (WT mature osteoclasts; listed as ISO): normal
cAMP production in osteoblasts (WT osteoblasts): enhances
cAMP production in osteoblasts (WT osteoblasts; listed as Isoproterenol): stimulate
IL6 expression in bones (WT mice [1]): increased
OPG expression in bones (WT mice [1]): unaffected
Rank-l expression in bones (WT mice [1]): increased
number of TRAP-positive multinucleated osteoclasts [2]: did not affect
number of TRAP-positive multinucleated osteoclasts ([2]; listed as Isoproterenol): not affected

CC(C)NCC(O)COc1cccc2ccccc12 (stereo not drawn) [propranolol]
bone formation (WT mice [3]): enhances
bone resorption parameters (OcS/BS, OcNb/BPm, urinary dpd) (WT mice [4]): do not display a significant decrease; also recorded: did not affect

CC(C)(C)NCC(O)c1ccc(O)c(CO)c1 (stereo not drawn) [salbutamol]
cAMP production in osteoblasts (WT osteoblasts): stimulated

calcitonin
intracellular cAMP production in osteoclasts (mature osteoclasts): robust stimulation

B1: Parathyroid hormone (peptide, UniProt P01270 32-115, looked up)
Parathyroid hormone: SVSEIQLMHNLGKHLNSMERVEWLRKKLQDVHNFVALGAPLAPRDAGSQRPRKKEDNVLVESHEKSLGEADKADVNVLTKAKSQ
modifications: Parathyroid hormone
notes: Parathyroid hormone (PTH)
cAMP production in osteoblasts (WT osteoblasts): stimulate
